# According to article PMC10046369, “Low-Affinity/High-Selectivity Dopamine Transport Inhibition Sufficient to Rescue Cognitive Functions in the Aging Rat” (Biomolecules, 2023):
# How the values were obtained:
# [1] = target: T1, LPA3 (h) (Homo sapiens, UniProt Q9UBY5); experiment: cell-based; parameters: functional GPCR antagonist screen (Eurofins Cerep), percent inhibition of control agonist response; conditions: antagonist effect, against control agonist; read-out: % Inhibition of Control Agonist Response, Mean
# T1 construct: gene LPAR3
# [2] = target: T2, MC3 (h) (Homo sapiens, UniProt P41968); experiment: cell-based; parameters: functional GPCR antagonist screen (Eurofins Cerep), percent inhibition of control agonist response; conditions: antagonist effect, against control agonist; read-out: % Inhibition of Control Agonist Response, Mean
# T2 construct: gene MC3R
# [3] = target: T3, NPBW1 (h) (Homo sapiens, UniProt P48145); experiment: cell-based; parameters: functional GPCR antagonist screen (Eurofins Cerep), percent inhibition of control agonist response; conditions: antagonist effect, against control agonist; read-out: % Inhibition of Control Agonist Response, Mean
# T3 construct: gene NPBWR1
# [4] = target: T4, DP1 (h) (Homo sapiens, UniProt Q13258); experiment: cell-based; parameters: functional GPCR antagonist screen (Eurofins Cerep), percent inhibition of control agonist response; conditions: antagonist effect, against control agonist; read-out: % Inhibition of Control Agonist Response, Mean
# T4 construct: gene PTGDR
# [5] = target: T5, NTS2 (NT2) (h) (Homo sapiens, UniProt O95665); experiment: cell-based; parameters: functional GPCR antagonist screen (Eurofins Cerep), percent inhibition of control agonist response; conditions: antagonist effect, against control agonist; read-out: % Inhibition of Control Agonist Response, Mean
# T5 construct: gene NTSR2
# [6] = target: T6, PFCDPK1(P.falciparum) (Plasmodium falciparum, UniProt P62344); experiment: biochemical; parameters: KINOMEscan competition binding panel, per cent of control; conditions: read-out: %Ctrl @ 2800nM
# T6 construct: gene CDPK1
# [7] = target: T7, TRKC (Homo sapiens, UniProt Q16288); experiment: biochemical; parameters: KINOMEscan competition binding panel, per cent of control; conditions: read-out: %Ctrl @ 2800nM
# T7 construct: gene NTRK3
# Outline: (§1)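 Competition binding panel (KINOMEscan) across 450 human kinases and disease-relevant mutants, run to the contractor's standard protocol. Values are % control: (test signal − positive control signal)/(negative control signal − positive control signal) × 100, with lower values indicating stronger binding.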
# [8] = target: T8, p38-delta (Homo sapiens, UniProt O15264); experiment: biochemical; parameters: KINOMEscan competition binding panel, per cent of control; conditions: read-out: %Ctrl @ 2800nM
# T8 construct: gene MAPK13
# Outline: as §1
# [9] = target: FLT3(K663Q) (Homo sapiens, UniProt P36888, K663Q); experiment: biochemical; parameters: KINOMEscan competition binding panel, per cent of control; conditions: read-out: %Ctrl @ 2800nM
# Outline: as §1
# [10] = target: CDK3 (Homo sapiens, UniProt Q00526); experiment: biochemical; parameters: KINOMEscan competition binding panel, per cent of control; conditions: read-out: %Ctrl @ 2800nM
# Outline: as §1
# [11] = target: T9, SIK (Homo sapiens, UniProt P57059); experiment: biochemical; parameters: KINOMEscan competition binding panel, per cent of control; conditions: read-out: %Ctrl @ 2800nM
# T9 construct: gene SIK1
# Outline: as §1
# [12] = target: TNK2 (Homo sapiens, UniProt Q07912); experiment: biochemical; parameters: KINOMEscan competition binding panel, per cent of control; conditions: read-out: %Ctrl @ 2800nM
# Outline: as §1
# [13] = target: SRPK3 (Homo sapiens, UniProt Q9UPE1); experiment: biochemical; parameters: KINOMEscan competition binding panel, per cent of control; conditions: read-out: %Ctrl @ 2800nM
# Outline: as §1
# [14] = target: EGFR(L747-E749del, A750P) (Homo sapiens, UniProt P00533, A750P/DEL747-749); experiment: biochemical; parameters: KINOMEscan competition binding panel, per cent of control; conditions: read-out: %Ctrl @ 2800nM
# Outline: as §1
# [15] = target: T10, RSK2(Kin.Dom.2-C-terminal) (Homo sapiens, UniProt P51812); experiment: biochemical; parameters: KINOMEscan competition binding panel, per cent of control; conditions: read-out: %Ctrl @ 2800nM
# T10 construct: gene RPS6KA3; Kin.Dom.2-C-terminal
# Outline: as §1
# [16] = target: BRSK2 (Homo sapiens, UniProt Q8IWQ3); experiment: biochemical; parameters: KINOMEscan competition binding panel, per cent of control; conditions: read-out: %Ctrl @ 2800nM
# Outline: as §1
# [17] = target: MARK1 (Homo sapiens, UniProt Q9P0L2); experiment: biochemical; parameters: KINOMEscan competition binding panel, per cent of control; conditions: read-out: %Ctrl @ 2800nM
# Outline: as §1
# [18] = target: TIE1 (Homo sapiens, UniProt P35590); experiment: biochemical; parameters: KINOMEscan competition binding panel, per cent of control; conditions: read-out: %Ctrl @ 2800nM
# Outline: as §1
# [19] = target: CSF1R-autoinhibited (Homo sapiens, UniProt P07333); experiment: biochemical; parameters: KINOMEscan competition binding panel, per cent of control; conditions: read-out: %Ctrl @ 2800nM
# Outline: as §1
# [20] = target: CDK4 (Homo sapiens, UniProt P11802); experiment: biochemical; parameters: KINOMEscan competition binding panel, per cent of control; conditions: read-out: %Ctrl @ 2800nM
# Outline: as §1
# [21] = target: PIM2 (Homo sapiens, UniProt Q9P1W9); experiment: biochemical; parameters: KINOMEscan competition binding panel, per cent of control; conditions: read-out: %Ctrl @ 2800nM
# Outline: as §1
# [22] = target: CAMK2G (Homo sapiens, UniProt Q13555); experiment: biochemical; parameters: KINOMEscan competition binding panel, per cent of control; conditions: read-out: %Ctrl @ 2800nM
# Outline: as §1
# [23] = target: KIT(D816V) (Homo sapiens, UniProt P10721, D816V); experiment: biochemical; parameters: KINOMEscan competition binding panel, per cent of control; conditions: read-out: %Ctrl @ 2800nM
# Outline: as §1
# [24] = target: RIPK2 (Homo sapiens, UniProt O43353); experiment: biochemical; parameters: KINOMEscan competition binding panel, per cent of control; conditions: read-out: %Ctrl @ 2800nM
# Outline: as §1
# Chain of TNK2 (Q07912 whole entry): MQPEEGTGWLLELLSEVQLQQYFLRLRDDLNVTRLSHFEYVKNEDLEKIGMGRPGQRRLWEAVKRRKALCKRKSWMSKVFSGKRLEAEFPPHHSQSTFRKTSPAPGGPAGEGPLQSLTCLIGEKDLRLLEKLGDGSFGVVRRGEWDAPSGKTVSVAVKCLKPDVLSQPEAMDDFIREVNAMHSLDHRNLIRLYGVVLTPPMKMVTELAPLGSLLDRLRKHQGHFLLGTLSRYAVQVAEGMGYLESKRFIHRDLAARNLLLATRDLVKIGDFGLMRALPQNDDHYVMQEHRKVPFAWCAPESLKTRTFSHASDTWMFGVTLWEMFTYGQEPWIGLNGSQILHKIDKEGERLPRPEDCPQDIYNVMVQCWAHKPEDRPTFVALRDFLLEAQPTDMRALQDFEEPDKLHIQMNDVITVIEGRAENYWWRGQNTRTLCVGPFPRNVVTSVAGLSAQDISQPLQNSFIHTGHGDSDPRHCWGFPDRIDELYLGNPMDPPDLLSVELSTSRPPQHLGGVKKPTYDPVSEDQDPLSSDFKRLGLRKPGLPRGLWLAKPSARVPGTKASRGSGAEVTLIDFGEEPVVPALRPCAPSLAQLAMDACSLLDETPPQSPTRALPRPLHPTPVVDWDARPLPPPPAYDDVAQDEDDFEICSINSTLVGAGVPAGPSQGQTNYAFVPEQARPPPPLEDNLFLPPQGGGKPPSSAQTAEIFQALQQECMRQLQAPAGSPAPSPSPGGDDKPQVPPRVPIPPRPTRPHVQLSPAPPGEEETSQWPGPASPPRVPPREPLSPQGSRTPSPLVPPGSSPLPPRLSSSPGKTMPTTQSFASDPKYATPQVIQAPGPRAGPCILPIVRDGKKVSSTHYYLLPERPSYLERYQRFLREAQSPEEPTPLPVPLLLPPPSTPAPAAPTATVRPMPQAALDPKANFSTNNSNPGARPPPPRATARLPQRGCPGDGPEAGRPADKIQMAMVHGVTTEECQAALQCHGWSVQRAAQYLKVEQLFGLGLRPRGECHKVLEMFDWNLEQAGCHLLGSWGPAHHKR
# Chain of CDK3 (Q00526 whole entry): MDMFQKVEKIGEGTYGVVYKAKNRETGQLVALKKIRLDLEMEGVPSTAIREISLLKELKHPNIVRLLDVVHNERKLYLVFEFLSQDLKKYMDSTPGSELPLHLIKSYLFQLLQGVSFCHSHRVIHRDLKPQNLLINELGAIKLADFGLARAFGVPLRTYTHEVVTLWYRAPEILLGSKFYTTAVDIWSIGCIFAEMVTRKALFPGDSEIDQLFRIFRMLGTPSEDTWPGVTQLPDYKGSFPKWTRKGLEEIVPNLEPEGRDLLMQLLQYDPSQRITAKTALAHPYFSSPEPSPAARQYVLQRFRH
# Chain of RIPK2 (O43353 whole entry): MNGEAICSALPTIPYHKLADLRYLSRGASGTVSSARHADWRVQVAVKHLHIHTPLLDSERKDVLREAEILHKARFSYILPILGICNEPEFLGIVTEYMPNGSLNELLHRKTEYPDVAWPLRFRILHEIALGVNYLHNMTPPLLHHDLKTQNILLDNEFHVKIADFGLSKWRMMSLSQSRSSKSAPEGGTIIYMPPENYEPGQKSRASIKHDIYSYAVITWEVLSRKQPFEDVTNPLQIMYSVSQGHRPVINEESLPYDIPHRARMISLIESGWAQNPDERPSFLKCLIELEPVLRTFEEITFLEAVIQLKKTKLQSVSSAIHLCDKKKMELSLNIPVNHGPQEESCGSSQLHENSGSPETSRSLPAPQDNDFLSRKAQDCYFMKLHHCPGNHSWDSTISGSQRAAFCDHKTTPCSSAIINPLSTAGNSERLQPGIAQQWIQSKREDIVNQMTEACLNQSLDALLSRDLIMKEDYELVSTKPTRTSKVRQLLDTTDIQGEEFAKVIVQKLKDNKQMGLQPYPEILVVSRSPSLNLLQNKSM
# T10 sequence (P51812 whole entry): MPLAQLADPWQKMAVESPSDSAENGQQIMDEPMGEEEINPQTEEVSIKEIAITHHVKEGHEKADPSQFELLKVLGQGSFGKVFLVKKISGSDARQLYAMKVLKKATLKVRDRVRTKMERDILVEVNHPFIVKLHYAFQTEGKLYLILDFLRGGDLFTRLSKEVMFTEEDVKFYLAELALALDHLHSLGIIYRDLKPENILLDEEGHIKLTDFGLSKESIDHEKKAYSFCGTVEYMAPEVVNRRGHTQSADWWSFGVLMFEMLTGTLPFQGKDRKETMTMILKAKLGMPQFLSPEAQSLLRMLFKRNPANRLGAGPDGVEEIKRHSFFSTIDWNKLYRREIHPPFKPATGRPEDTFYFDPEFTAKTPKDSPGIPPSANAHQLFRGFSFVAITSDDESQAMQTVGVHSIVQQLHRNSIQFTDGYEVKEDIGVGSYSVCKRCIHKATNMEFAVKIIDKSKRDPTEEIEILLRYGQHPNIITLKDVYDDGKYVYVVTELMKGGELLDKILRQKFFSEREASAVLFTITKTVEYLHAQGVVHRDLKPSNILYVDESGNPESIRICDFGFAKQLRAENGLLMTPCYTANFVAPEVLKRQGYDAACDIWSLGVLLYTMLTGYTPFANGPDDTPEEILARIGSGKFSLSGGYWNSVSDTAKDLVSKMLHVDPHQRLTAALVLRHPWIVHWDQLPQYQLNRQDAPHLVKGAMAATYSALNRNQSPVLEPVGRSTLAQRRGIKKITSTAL
# Chain of SRPK3 (Q9UPE1 whole entry): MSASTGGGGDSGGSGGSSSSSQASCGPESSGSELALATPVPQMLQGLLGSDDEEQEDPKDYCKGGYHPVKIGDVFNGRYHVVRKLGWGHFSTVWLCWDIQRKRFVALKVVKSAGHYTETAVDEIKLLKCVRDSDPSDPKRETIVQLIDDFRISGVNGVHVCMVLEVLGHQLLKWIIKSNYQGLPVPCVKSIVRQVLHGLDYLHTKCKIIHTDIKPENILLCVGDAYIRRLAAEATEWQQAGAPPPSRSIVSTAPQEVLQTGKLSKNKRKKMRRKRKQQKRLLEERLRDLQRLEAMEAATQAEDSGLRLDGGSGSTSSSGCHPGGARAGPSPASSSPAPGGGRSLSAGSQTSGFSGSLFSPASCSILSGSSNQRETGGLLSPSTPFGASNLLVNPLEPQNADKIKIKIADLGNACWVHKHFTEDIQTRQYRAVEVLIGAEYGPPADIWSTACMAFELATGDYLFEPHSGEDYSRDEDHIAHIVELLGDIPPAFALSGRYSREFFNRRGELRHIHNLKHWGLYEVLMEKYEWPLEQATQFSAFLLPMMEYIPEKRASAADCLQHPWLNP
# T2 sequence (P41968 whole entry): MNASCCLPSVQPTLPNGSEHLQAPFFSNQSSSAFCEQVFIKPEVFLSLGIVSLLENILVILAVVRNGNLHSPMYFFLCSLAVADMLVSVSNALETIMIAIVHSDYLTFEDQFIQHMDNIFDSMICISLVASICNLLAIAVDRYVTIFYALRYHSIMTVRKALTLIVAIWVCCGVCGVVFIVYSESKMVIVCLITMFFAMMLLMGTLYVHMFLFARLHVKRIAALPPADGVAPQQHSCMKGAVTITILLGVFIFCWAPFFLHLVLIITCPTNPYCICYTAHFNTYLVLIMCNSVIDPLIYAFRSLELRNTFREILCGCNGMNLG
# Chain of PIM2 (Q9P1W9 whole entry): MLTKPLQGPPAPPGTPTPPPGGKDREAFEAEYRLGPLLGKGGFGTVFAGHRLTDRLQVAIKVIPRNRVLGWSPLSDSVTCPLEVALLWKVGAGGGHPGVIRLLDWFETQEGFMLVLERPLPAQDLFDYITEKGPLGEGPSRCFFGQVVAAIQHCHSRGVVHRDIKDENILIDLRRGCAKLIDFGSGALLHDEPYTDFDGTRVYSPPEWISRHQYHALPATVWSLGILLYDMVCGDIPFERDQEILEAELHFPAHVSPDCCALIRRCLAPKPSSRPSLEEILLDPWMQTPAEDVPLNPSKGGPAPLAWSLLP
# Chain of EGFR(L747-E749del, A750P) (P00533 with tags, fused parts or gaps DEL747-749/A750P): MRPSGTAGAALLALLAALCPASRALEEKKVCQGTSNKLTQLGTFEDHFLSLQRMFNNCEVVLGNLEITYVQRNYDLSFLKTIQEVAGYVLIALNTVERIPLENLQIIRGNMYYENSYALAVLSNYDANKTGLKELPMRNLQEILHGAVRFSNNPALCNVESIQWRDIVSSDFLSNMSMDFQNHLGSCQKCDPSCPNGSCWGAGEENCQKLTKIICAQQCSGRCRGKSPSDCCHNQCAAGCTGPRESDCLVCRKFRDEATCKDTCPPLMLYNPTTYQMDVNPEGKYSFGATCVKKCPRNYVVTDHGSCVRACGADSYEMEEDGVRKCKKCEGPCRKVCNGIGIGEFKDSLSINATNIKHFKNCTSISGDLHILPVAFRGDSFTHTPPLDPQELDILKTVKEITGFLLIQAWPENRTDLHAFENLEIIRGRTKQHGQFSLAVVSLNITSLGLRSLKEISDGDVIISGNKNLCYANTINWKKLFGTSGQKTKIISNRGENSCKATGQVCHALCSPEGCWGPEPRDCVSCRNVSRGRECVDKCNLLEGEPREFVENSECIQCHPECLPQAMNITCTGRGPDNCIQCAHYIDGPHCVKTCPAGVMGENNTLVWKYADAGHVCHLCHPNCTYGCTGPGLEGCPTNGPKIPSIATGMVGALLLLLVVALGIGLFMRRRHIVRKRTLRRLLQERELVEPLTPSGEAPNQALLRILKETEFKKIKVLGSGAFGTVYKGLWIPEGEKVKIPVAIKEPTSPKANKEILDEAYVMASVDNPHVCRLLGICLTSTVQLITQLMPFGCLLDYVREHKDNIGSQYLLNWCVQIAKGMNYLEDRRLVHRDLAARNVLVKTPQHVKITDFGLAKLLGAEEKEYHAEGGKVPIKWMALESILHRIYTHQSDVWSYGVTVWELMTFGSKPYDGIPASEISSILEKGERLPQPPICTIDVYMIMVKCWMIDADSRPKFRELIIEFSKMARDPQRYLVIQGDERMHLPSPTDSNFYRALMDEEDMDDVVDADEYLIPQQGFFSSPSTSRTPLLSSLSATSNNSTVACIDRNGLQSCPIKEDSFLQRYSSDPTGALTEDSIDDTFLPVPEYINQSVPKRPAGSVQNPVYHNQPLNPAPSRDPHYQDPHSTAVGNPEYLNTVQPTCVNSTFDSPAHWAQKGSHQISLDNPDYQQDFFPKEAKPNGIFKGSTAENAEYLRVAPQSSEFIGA
compound,measurement,setting,value
"[O-][S@@+](Cc1cncs1)C(c1ccccc1)c1ccccc1 [S-CE-123, (S)-5-((Benzhydrylsulfinyl)Methyl)Thiazole]",inhibition at 2.8 µM,[1],-34.4%
same,inhibition at 2.8 µM,[2],-7.8%
same,inhibition at 2.8 µM,[3],-1.9%
same,inhibition at 2.8 µM,[4],-2.5%
same,inhibition at 2.8 µM,[5],22.9%
same,remaining binding at 2.8 µM,[6],70%
same,remaining binding at 2.8 µM,[7],100%
same,remaining binding at 2.8 µM,[8],95%
same,remaining binding at 2.8 µM,[9],96%
same,remaining binding at 2.8 µM,[10],100%
same,remaining binding at 2.8 µM,[11],100%
same,remaining binding at 2.8 µM,[12],100%
same,remaining binding at 2.8 µM,[13],76%
same,remaining binding at 2.8 µM,[14],93%
same,remaining binding at 2.8 µM,[15],96%
same,remaining binding at 2.8 µM,[16],100%
same,remaining binding at 2.8 µM,[17],93%
same,remaining binding at 2.8 µM,[18],100%
same,remaining binding at 2.8 µM,[19],100%
same,remaining binding at 2.8 µM,[20],100%
same,remaining binding at 2.8 µM,[21],100%
same,remaining binding at 2.8 µM,[22],95%
same,remaining binding at 2.8 µM,[23],97%
same,remaining binding at 2.8 µM,[24],100%
